{"source": "patent US7229630B2", "about": "“Stabilized formulations of alpha adrenergic receptor antagonists and the uses thereof” (Novalar Pharmaceuticals, Inc., priority 2002, dated 2007)", "system": "human subjects", "assay": "Reversal of local anesthesia (polocaine with levonordefrin) by LARA vs saline, bilateral injection", "assay_type": "in vivo", "settings": "three subjects, 1.6 ml of 0.05 mg/ml phentolamine mesylate", "procedure": "An injection of the physiological saline vehicle (without phentolamine mesylate) served as the control. […] This was followed by injection of the phentolamine mesylate containing local anesthetic reversal agent (LARA) into one side of the oral cavity, and injection of the saline vehicle (control) solution into the opposite side of the oral cavity. The time to reversal of the local anesthetic effect on both sides was then recorded to determine whether there is a difference between the two sides.\nThe local anesthetic used was 2% polocaine (mepivacaine hydrochloride) with levonordefrin (1:20,000=0.05 mg/ml) (levonordefrin injection, USP) (Astra USA, Inc., Westborough, Mass. 01581). Levonordefrin is a sympathomimetic amine with a pharmacological profile similar to that of epinephrine, but with a lower potency.\nThree healthy, male human subjects, age 34–50, volunteered to have local anesthetic injected in the mouth bilaterally under the lip in an easily repeatable location. The exact time of each injection was recorded. The position chosen was above (apical) the prominence of the root of the upper cuspid teeth. This is a common site selected to numb the cuspids, lateral incisors and upper lip. The volume of the local anesthetic injected was 1.7+0.1 ml on each side of the mouth. […]", "note": "Counter-ions that a name gives are not always drawn.", "data": [{"compound": "Cc1ccc(N(CC2=NCCN2)c2cccc(O)c2)cc1", "note": "[Phentolamine Mesylate, phentolamine mesylate]", "values": [{"measurement": "side-effects", "value": "no side-effects of any kind were noted"}]}]}
